Consider 1 compound from US5185377A, “Diphenyl compounds which inhibit arachidonic acid metabolism, and their use in pharmaceutical compositions” (Ciba-Geigy Corporation, priority 1990, dated 1993).

The subject of assay [1] is isolated lung parenchyma strips. The assay is described as follows: Arachidonic acid-induced contraction of isolated lung parenchyma strips. Format: cell-based, guinea-pig. Particulars: Cavia porcellus, read-out: ED50 (concentration-related contraction). The procedure: (§1) Testing of antiasthmatic active qualities of triclosan and fenticlor in vitro is carried out on isolated tracheal spirals and lung parenchyma strips of adult guinea-pigs (250-500 g) of both sexes. The tracheal spirals are prepared by the method described by Constantine [J. W. Constantine et al., J. Pharm. Pharmacol. 17, 384 (1965)]. Particular emphasis is placed on complete removal of the surrounding connective tissue and on maintaining the integrity of the epithelium [N. A. Flavahan et al., J. Appl. Physiol. 58, 834 (1985)].
(§2) The lung parenchyma strip is prepared in accordance with the method described by Del Monte [L. Del Monte et a., Naunym-Schmiedebergs Arch. Pharmacol., 338, 417 (1988)]. The contraction of the isolated organs is determined as isotonic measurement of the path under standardised conditions [J. Slapke et al., Biomed. Biochim. Acta 42, 1309 (1983)] in a multiple organ bath.
A modified Krebs-Henseleit solution (pH=7.4) of the following composition is used for the studies (m×mol 1^-1): NaCl 134.8, KCl 5.9, Tris 10.02, CaCl2 1.82, MgCl2 1.145, glucose 1.11. Air is used for gassing. The bath temperature is 37° C. for the lung parenchyma strips and 35° C. for the tracheal spirals. Conditioning of the preparations is performed several times with 5×10^-4 M acetylcholine to obtain the standardisation value, this substance subsequently being flushed out. In all studies, the contractions are induced by addition of arachidonic acid to the organ bath in increasing concentrations and are measured cumulatively. All the measurements are made in the present of 5 μM indomethacin.

In assay [2] the test system is isolated tracheal spirals. The assay is described as follows: Arachidonic acid-induced contraction of isolated tracheal spirals. Particulars: Cavia porcellus, average, 35° C., 5 μM indomethacin present, read-out: ED50 (concentration-related contraction). Format: cell-based, guinea-pig. The procedure:
as §1, §2
A modified Krebs-Henseleit solution (pH=7.4) of the following composition is used for the studies (m×mol 1^-1): NaCl 134.8, KCl 5.9, Tris 10.02, CaCl2 1.82, MgCl2 1.145, glucose 1.11. Air is used for gassing. The bath temperature is 37° C. for the lung parenchyma strips and 35° C. for the tracheal spirals. […] In all studies, the contractions are induced by addition of arachidonic acid to the organ bath in increasing concentrations and are measured cumulatively. […]

Molecules are shown by their SMILES.

For `CCCCC/C=C\C/C=C\C/C=C\C/C=C\CCCC(=O)O` [Arachidonic acid, arachidonic acid], the figures for the EC50 in assay [1] and in assay [2] were 100 µM and 50 µM, respectively.
